For 5 compounds, GC-MS product analysis results are on record in PMC6240891, “Functional Analysis of Four Terpene Synthases in Rose-Scented Pelargonium Cultivars (Pelargonium × hybridum) and Evolution of Scent in the Pelargonium Genus” (Frontiers in Plant Science, 2018).

Common to all, as to experiment: GC-MS product analysis
Common to all, as to format: biochemical
Holding throughout (conditions): 10 mM MgCl2, 1 mM MnCl2, pH 7.5, 30°C, 2 h

One assay deals with T1, PhEDS (Pelargonium graveolens, UniProt A0A2S1JKY7).
T1 construct: gene EUS; full-length; E. coli Rosetta (DE3) pLysS
T1 sequence (A0A2S1JKY7 1-567): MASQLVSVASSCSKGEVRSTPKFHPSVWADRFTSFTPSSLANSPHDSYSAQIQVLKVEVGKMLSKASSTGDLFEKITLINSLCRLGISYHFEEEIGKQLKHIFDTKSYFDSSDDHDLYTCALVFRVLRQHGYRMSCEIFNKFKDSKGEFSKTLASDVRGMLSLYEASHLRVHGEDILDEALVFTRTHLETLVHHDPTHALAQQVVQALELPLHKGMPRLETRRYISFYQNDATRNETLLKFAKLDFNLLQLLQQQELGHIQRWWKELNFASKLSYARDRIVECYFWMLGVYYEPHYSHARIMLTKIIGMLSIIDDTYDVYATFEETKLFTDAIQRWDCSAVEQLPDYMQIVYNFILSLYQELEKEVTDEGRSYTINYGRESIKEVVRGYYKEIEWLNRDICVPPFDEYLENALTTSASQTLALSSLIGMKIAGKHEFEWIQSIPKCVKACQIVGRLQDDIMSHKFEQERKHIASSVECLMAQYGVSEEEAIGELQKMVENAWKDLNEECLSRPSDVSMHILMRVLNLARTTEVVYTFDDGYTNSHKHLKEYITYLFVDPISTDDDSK

A further assay has as its target T2, PhGES (Pelargonium graveolens, UniProt A0A2S1JKY6).
T2 construct: gene GES; full-length (plastid-targeted); E. coli Rosetta (DE3) pLysS; 'Grasse' form lacks the TAL triplet of 'Bourbon' and 'Egypt'
T2 sequence (A0A2S1JKY6 1-555): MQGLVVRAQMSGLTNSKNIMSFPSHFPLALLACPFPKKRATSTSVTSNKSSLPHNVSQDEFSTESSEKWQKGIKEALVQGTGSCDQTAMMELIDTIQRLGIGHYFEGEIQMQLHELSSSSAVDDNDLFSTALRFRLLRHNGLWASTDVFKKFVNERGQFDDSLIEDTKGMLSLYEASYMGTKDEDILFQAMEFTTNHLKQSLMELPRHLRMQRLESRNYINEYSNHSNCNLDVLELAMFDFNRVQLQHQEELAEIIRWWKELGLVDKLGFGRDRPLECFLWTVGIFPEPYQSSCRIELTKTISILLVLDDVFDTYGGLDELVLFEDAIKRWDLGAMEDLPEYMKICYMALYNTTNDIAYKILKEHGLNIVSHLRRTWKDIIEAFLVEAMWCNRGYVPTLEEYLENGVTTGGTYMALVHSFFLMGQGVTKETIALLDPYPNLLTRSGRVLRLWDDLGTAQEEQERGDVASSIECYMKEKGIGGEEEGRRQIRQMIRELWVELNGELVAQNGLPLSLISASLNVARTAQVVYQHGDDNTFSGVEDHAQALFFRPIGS

In another assay the target is T3, PhMYRS (Pelargonium graveolens, UniProt A0A2S1JKZ8).
T3 construct: gene MYRS; full-length (predicted plastid-targeted); E. coli Rosetta (DE3) pLysS
T3 sequence (A0A2S1JKZ8 1-606): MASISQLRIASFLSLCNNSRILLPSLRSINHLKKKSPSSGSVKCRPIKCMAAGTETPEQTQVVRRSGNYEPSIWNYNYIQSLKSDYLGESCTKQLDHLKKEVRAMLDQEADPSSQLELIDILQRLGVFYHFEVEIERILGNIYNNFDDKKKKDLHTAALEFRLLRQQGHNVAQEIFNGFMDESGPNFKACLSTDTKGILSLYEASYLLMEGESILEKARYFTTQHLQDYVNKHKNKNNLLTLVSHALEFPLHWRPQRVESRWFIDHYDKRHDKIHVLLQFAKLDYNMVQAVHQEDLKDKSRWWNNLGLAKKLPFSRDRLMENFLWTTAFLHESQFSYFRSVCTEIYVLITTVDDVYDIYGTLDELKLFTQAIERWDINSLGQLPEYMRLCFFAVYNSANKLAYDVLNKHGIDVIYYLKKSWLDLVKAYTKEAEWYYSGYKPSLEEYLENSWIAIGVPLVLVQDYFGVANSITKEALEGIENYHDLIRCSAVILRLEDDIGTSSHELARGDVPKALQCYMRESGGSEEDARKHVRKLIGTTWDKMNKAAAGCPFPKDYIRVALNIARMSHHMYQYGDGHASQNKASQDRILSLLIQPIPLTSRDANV

Consider `CC1=C2CC(C(C)(C)O)CCC2(C)CCC1` (stereo not drawn) [10-epi-γ-eudesmol], for which the GC-MS product analysis entry on PhEDS (major product from FPP) was “PhEDS (MF503882) produced 10-epi-γ-eudesmol and α-eudesmol as major and minor products”.

On to `CC(C)=CCC/C(C)=C/CC/C(C)=C/COP(=O)(O)OP(=O)(O)O` [FPP], for which the GC-MS product analysis result at PhEDS (50 µM) is “PhEDS (MF503882) produced 10-epi-γ-eudesmol and α-eudesmol as major and minor products, respectively, after incubation with FPP”.

`CC(C)=CCC/C(C)=C/COP(=O)(O)OP(=O)(O)O` [GPP]: the GC-MS product analysis result is reported as “PhGES (MF503883) produced uniquely geraniol in presence of GPP as a substrate” on PhGES (50 µM) and “PhMYRS (MF503884) used GPP to produce β-myrcene as major compound” on PhMYRS (50 µM).

As for `CC(C)=CCC/C(C)=C/CO` [geraniol], the GC-MS product analysis result at PhGES (sole product from GPP) is given as “PhGES (MF503883) produced uniquely geraniol in presence of GPP as a substrate”.

Turning to `C=CC(=C)CCC=C(C)C` [β-myrcene], at PhMYRS (major product from GPP), the GC-MS product analysis result is “PhMYRS (MF503884) used GPP to produce β-myrcene as major compound”.
